Patent US8877696B2, “Cleaning compositions comprising pH-switchable amine surfactants” (The Proctor & Gamble Company, priority 2012, dated 2014)

How the values were obtained:
Assay type in all cases: physicochemical
[1] = Suds testing protocol (FOAMSCAN foam / suds / lather volume); conditions: for Foam Volume: lauric acid 2000 ppm
Procedure: SUDS TESTING PROTOCOL: Foam volume and foam mileage are measured by […] instrument manufactured by […].-Concept, Longessaigne, France. The experiment is run at 25.0° C. (±0.5° C.). […] The cleaning solution contains 25 ppm Technical Body Soil (“TBS”; consisting of 15 wt. % coconut oil, 15 wt. % oleic acid, 15 wt. % paraffin oil, 15 wt. % olive oil, 15 wt. % cottonseed oil, 5 wt. % squalene, 5 wt. % cholesterol, 5 wt % myristic acid, 5 wt. % palmitic acid, and 5 wt. % stearic acid). The cleaning solution is mixed and aged at 60° C. for an hour and is placed into the […] sample chamber, a 1000-mL cylindrical transparent plastic cell. […] The suds volume recorded at the end of stifling is defined as the suds volume generated. The suds mileage is monitored by the time course of the suds height over 10 minutes. The final suds volume at the end of the 10 minutes is reported. […] Hardness is indicated by a calculation where both calcium and magnesium values are reported as mg/L (ppm), in which 2.5[Ca]+4.12[Mg] equals hardness in mg/L. The unit “grains per gallon” (gpg) is defined as 1 grain (64.8 mg) of calcium carbonate per U.S. gallon (3.79 L), or 17.118 ppm. Thus, 1 gpg is equivalent to 17.118 ppm of the Calcium and Magnesium solution at a 3:1 molar ratio of calcium to magnesium.

[2] = Micellar lifetime (τ2) by stopped flow conductimetry; conditions: pH 10.0 (wash), lauric acid system
Procedure: MEASUREMENT OF […] […] (τ2): The micellar stability of a surfactant system is measured by Stopped Flow Conductimetry. The experiment is run at 25.0° C. (±0.5° C.). […] The conductivity of the solution is monitored by a MCS-200 Impedance Spectrometer from Bio-Logic SAS. The τ2 value is defined as the time required to reach a new equilibrium, as determined by curve-fit software BKMCS (version #1) from the Bio-Logic SAS company.

[3] = Marangoni effect (E′/E″), oscillating drop interfacial rheology; conditions: pH 10.0 (wash), lauric acid system
Procedure: […] EFFECT (EYE'') MEASUREMENT: The Marangoni Effect quantifies the origin of foam film stability. Dynamic interfacial rheology is measured by a DSA100 (Kruss USA, Charlotte, N.C.) instrument equipped with an Oscillating Drop Module (ODM). The measurement is based on monitoring oscillating pendent drop shape with a CCD camera. The dynamic changes in the surface area and the interfacial tension (air-liquid interface) of the pendent drop from oscilating at equal periods, were recorded. A delay of dynamic interfacial tension change to dynamic surface area change is expressed as a phase angle Φ […]. From the measured phase angle, the Elastic Modulus (E') and Viscous Modulus (E'') are calculated. The Marangoni Effect EYE'' is computed from the relationship, E'/E''=cot Φ. At various surfactant levels, measurements are conducted at pH 10 and 4 gpg hardness in a base matrix of 300 ppm LAS (detergent measurements only) or 2000 ppm fatty acid (bar soap measurements only); 2300 ppm Na2SO4, and 25 ppm TBS (described above). The pH-switchable cosurfactants are added on the top of the base matrix to assess their impact on foam-film stability. The ODM operation is conducted with a period time of 2 seconds and an oscillation amplitude of 0.1 or 0.5.

[4] = Critical micelle formation concentration (CMC) by surface tension
Procedure: MEASUREMENT OF THE CRITICAL MICELLE FORMATION CONCENTRATION (CMC): CMC measurements are conducted by a measurement of a surface tension measure as a function of surfactant concentration according to “Surfactant: A Practical Handbook,” K. Robert Lange ed., Hanser Publishers, Munich (1999), pp. 16-17. A 5000-ppm stock solution of the samples is prepared for the analysis on a Kruss K100 Tensiometer (Kruss USA, Charlotte, N.C.). The hardness level and pH are adjusted using corresponding stock solutions of artificial hardness and an NaOH solution. The concentration series is generated automatically with a computer-controlled Dosimat, so that only a surfactant stock solution needs to be prepared. Measurements of surface tension at the air-water interface are carried out at twelve surfactant concentrations. The samples are analyzed at pH 8 and pH 10 for hardness values of 4 gpg and 8 gpg, all measurements being taken at 25.0° C. (±0.5° C.). The CMC data are analyzed by plotting increase in surface tension with respect to dilution by using the “CMC Add-In” of the Lab Desk software from Kruss. The CMC is defined as the surfactant concentration at the breakpoint in the titration curve.

Which results are given for `CCCCCCCCCCCC(=O)O` [Lauric Acid]?
Foam Volume ([1]; pH 8.0 (rinse)): 222 mL; Foam Volume ([1]; pH 10.0 (wash)): 80 mL; τ2 [2]: 39 ms; E′/E″ [3]: 1.5

With `CCCCCCCCCCCCNCCC[N+](C)(C)C.[Br-]` [QUAT, 3-(dodecylamino)-N,N,N-trimethylpropan-1-aminium bromide] as the compound, how does the CMC ([4]; pH 8) read?
Its CMC is 82 ppm.

What about the CMC ([4]; pH 10) of the same compound?
The CMC was 75 ppm.

Which results are given for `CCCCCCCCCCCC[N+](C)(C)CCO.[Br-]` [KDB, dodecyl-(2-hydroxyethyl)-dimethyl ammonium bromide]?
CMC ([4]; pH 8): 48 ppm; CMC ([4]; pH 10): 43 ppm

For `CCCCCCCCCCCC(=O)[O-].[Na+]` [Sodium Laurate], which “Change of Lather Volume (rinse vs wash)” value ([1]; 4 gpg) is on record?
Its value is −72%.

And the “Change of Lather Volume (rinse vs wash)” value ([1]; 8 gpg)?
The value was −100%.

What about the “Change of Lather Volume (rinse vs wash)” value ([1]; DI Water) of the same compound?
Its value is −23%.

And the “Lather Volume” value ([1]; pH 8.0 (rinse), 4 gpg)?
The value was 60 mL.

What about the “Lather Volume” value ([1]; pH 8.0 (rinse), 8 gpg) of the same compound?
Its value is 0 mL.

What about the “Lather Volume” value ([1]; pH 8.0 (rinse), 12 gpg) of the same compound?
The value was 0 mL.

And the “Lather Volume” value ([1]; pH 8.0 (rinse), 16 gpg)?
Its value is 0 mL.

What about the “Lather Volume” value ([1]; pH 8.0 (rinse), DI Water) of the same compound?
The value was 170 mL.

And the “Lather Volume” value ([1]; pH 10.0 (wash), 4 gpg)?
The value was 215 mL.

What about the “Lather Volume” value ([1]; pH 10.0 (wash), 8 gpg) of the same compound?
The value was 175 mL.

What about the “Lather Volume” value ([1]; pH 10.0 (wash), 12 gpg) of the same compound?
Its value is 0 mL.

And the “Lather Volume” value ([1]; pH 10.0 (wash), 16 gpg)?
The value was 0 mL.

What about the “Lather Volume” value ([1]; pH 10.0 (wash), DI Water) of the same compound?
The value was 220 mL.
